Results as given in BigSolDB 2.1.

Cc1c(Cl)cccc1Nc1ccccc1C(=O)O
solubility (mole fraction)
Conditions	283.15 K	288.15 K	293.15 K	298.15 K	303.15 K	308.15 K	313.15 K	318.15 K	323.15 K	328.15 K
in 1,4-dioxane	–	0.0289	0.032	0.0356	0.0399	0.0444	0.0492	0.0548	0.0599	0.0654
in DMF	0.00652	0.00892	0.0117	0.0152	0.019	0.0241	0.0303	0.0374	0.0454	0.055
in DMSO	–	–	0.0144	0.0186	0.0229	0.0288	0.0351	0.042	0.0495	0.0571
in acetonitrile	0.000228	0.000339	0.000463	0.000618	0.000808	0.00107	0.00137	0.00177	0.00221	0.00282
in cyclohexane	2.97e-05	4.31e-05	5.94e-05	8.23e-05	0.000116	0.000159	0.000216	0.000292	0.000391	0.000515
in ethyl acetate	0.00603	0.00799	0.0102	0.0127	0.0162	0.0201	0.0252	0.0314	0.0383	0.0458
in ethyl formate	0.00169	0.00239	0.00311	0.00405	0.00506	0.0066	0.00833	0.01	0.0131	0.0159
in ethylene glycol	8.74e-05	0.000132	0.000177	0.000233	0.000311	0.000406	0.000546	0.000717	0.000931	0.00122
in n-heptanol	0.00557	0.00726	0.00924	0.0114	0.0142	0.0171	0.0214	0.0257	0.0306	0.0366
in n-hexanol	0.00435	0.00581	0.00758	0.0094	0.0118	0.0144	0.0176	0.021	0.0251	0.0295
in n-pentanol	0.00335	0.00432	0.00575	0.00741	0.00916	0.0112	0.0138	0.0169	0.0206	0.0243
in n-pentyl acetate	0.00558	0.00726	0.00931	0.0116	0.0146	0.0179	0.0218	0.0261	0.031	0.0371
